Reference: patent US11090304B2 (Amgen Inc., priority 2018, dated 2021)

Molecular target: GDP-bound KRAS protein (aa 1-169), containing both G12C and C118A amino acid substitutions (Homo sapiens, UniProt P01116, C118A/G12C)
Assay: Coupled nucleotide exchange assay (SOS-mediated, AlphaScreen)
Assay type: biochemical
Conditions: not given

GDP-bound KRAS protein (aa 1-169), containing both G12C and C118A amino acid substitutions, sequence (P01116 1-169 isoform P01116-2 G12C/C118A): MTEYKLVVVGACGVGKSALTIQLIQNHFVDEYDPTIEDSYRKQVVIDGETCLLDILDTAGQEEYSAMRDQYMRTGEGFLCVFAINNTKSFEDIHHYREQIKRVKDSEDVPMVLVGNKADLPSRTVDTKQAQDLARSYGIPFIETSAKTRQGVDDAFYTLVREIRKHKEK

SMILES	Coupled exchange IC50 (5 min)
C=CC(=O)N1[C@@H]2C[C@H]1CN(c1nc(=O)n(-c3c(C)ccnc3C(C)C)c3nc(-c4ccccc4F)c(Cl)cc13)C2 (atropisomer, axis not shown; (M)) [Example 135, (M)-6-Chloro-7-(2-fluorophenyl)-1-(4-methyl-2-(2-propanyl)-3-pyridinyl)-4-((1R,5S)-6-(2-propenoyl)-3,6-diazabicyclo[3.1.1]heptan-3-yl)pyrido[2,3-d]pyrimidin-2(1H)-one]	3.32 | nda μM

Same assay, conditions: 5 min compound pre-incubation

SMILES	Coupled exchange IC50 (5 min)
C=CC(=O)N1CCN(c2nc(=O)n(-c3c(C)ccnc3C(C)C)c3nc(-c4c(O)cccc4F)c(C)cc23)[C@@H](C)C1 (single isomer, unassigned) [Example 74-3-2]	1.12 | nda μM
C=CC(=O)N1CCN(c2nc(=O)n(-c3ccccc3C(C)C)c3nc(-c4ccc[nH]4)c(Cl)cc23)[C@@H](C)C1 [Example 54-46, 6-chloro-4-((2S)-2-methyl-4-(2-propenoyl)-1-piperazinyl)-1-(2-(2-propanyl)phenyl)-7-(1H-pyrrol-2-yl)pyrido[2,3-d]pyrimidin-2(1H)-one]	7.24 | nda μM
C=CC(=O)N1CC=C(c2cc(=O)n(CC(C)(C)C)c3nc(-c4ccccc4F)c(Cl)cc23)CC1 [Example 124, 6-Chloro-1-(2,2-dimethylpropyl)-7-(2-fluorophenyl)-4-(1-(2-propenoyl)-1,2,3,6-tetrahydro-4-pyridinyl)-1,8-naphthyridin-2(1H)-one]	6.22 | nda μM
C=CC(=O)N1CCN(c2nc(=O)n(-c3c(CC)ncnc3CC)c3nc(-c4ccccc4F)c(F)cc23)[C@@H](C)C1 [Example 58-22, 1-(4,6-diethyl-5-pyrimidinyl)-6-fluoro-7-(2-fluorophenyl)-4-((2S)-2-methyl-4-(2-propenoyl)-1-piperazinyl)pyrido[2,3-d]pyrimidin-2(1H)-one]	2.71 | nda μM
C=CC(=O)N1CCN(c2nc(=O)n(-c3cccnc3C(C)(C)C)c3nc(-c4c(O)cccc4F)c(Cl)cc23)[C@@H](C)C1 (single isomer, unassigned) [Example 54-103-2]	1.48 | nda μM
C=CC(=O)N1CCN(c2cc(=O)n(CC(C)(C)C)c3nc(-c4ccccc4F)ccc23)[C@@H](C)C1 [Example 120, 1-(2,2-Dimethylpropyl)-7-(2-fluorophenyl)-4-((2S)-2-methyl-4-(2-propenoyl)-1-piperazinyl)-1,8-naphthyridin-2(1H)-one]	71.1 | nda μM
C=CC(=O)N1CCN(c2nc(=O)n(-c3c(C)cccc3C(C)C)c3nc(-c4c(C)ccc5[nH]ncc45)c(F)cc23)[C@@H](C)C1 (single isomer, unassigned) [Example 68-2-1]	5.29 | nda μM
C=CC(=O)N1CCN(c2nc(=O)n(-c3ccccc3C(C)C)c3nc(C4=CCCCC4)c(Cl)cc23)[C@@H](C)C1 (single isomer, unassigned) [Example 54-75-2]	10.6 | nda μM
C=CC(=O)N1CCN(c2nc(=O)n(-c3ccccc3C(C)(C)C)c3nc(-c4c(O)cccc4F)c(F)cc23)[C@@H](C)C1 (single isomer, unassigned) [Example 58-1-1]	5.95 | nda μM
C=CC(=O)N1CCN(c2nc(=O)n(-c3c(C)cccc3C(C)C)c3nc(-c4c(O)cccc4F)c(F)cc23)C(C)(C)C1 (single isomer, unassigned) [Example 63-4]	1.15 | nda μM
C=CC(=O)N1CCN(c2nc(=O)n(-c3c(C)ncnc3C(C)C)c3nc(-c4cc(C)ccc4F)c(Cl)cc23)[C@@H](C)C1 (single isomer, unassigned) [Example 55-40-1]	1.02 | nda μM
C=CC(=O)N1CCN(c2nc(=O)n(-c3c(C)ccnc3C(C)C)c3nc(Cl)c(Cl)cc23)[C@@H](C)C1 (atropisomer, axis not shown; (P)) [Example 61-2-1, (P)-6,7-dichloro-1-(4-methyl-2-(2-propanyl)-3-pyridinyl)-4-((2S)-2 methyl-4-(2-propenoyl)-1-piperazinyl)pyrido[2,3-d]pyrimidin-2(1H)-one]	8.24 | nda μM
C=CC(=O)N1CCN(c2nc(=O)n(-c3c(C)cccc3CC)c3nc(-c4c(O)cccc4F)c(F)cc23)[C@@H](C)C1 (single isomer, unassigned) [Example 57-14-2]	1.8 | nda μM
C=CC(=O)N1CCN(c2nc(=O)n(-c3c(C)ccnc3CC)c3nc(-c4c(O)cccc4F)c(F)cc23)[C@@H](C)C1 (single isomer, unassigned) [Example 57-1-2]	2.47 | nda μM
C=CC(=O)N1CCN(c2nc(=O)n(-c3c(C)ccnc3C3CC3)c3nc(-c4ccccc4F)c(F)cc23)[C@@H](C)C1 [Example 57-18, 1-(2-cyclopropyl-4-methyl-3-pyridinyl)-6-fluoro-7-(2-fluorophenyl)-4-((2S)-2-methyl-4-(2-propenoyl)-1-piperazinyl)pyrido[2,3-d]pyrimidin-2(1H)-one]	1.73 | nda μM
C=CC(=O)N1CCN(c2nc(=O)n(C)c3nc(-c4ccccc4F)c(Cl)cc23)[C@@H](C)C1 [Example 55-33, 6-chloro-7-(2-fluorophenyl)-1-methyl-4-((2S)-2-methyl-4-(2-propenoyl)-1-piperazinyl)pyrido[2,3-d]pyrimidin-2(1H)-one]	45.8 | nda μM
C=CC(=O)N1CCN(c2nc(=O)n(-c3c(C)ncnc3C(C)C)c3nc(-c4cc(F)ccc4F)c(Cl)cc23)[C@@H](C)C1 (single isomer, unassigned) [Example 55-39-1]	1.795 | nda μM

Second part, the compound after the results:

Coupled exchange IC50 (5 min)	SMILES
16.6 | nda μM	C=CC(=O)N1CCN(c2nc(=O)n(-c3c(CC)cccc3CC)c3nc(N4CCC[C@H](C)C4)c(Cl)cc23)[C@@H](C)C1 [Example 66-28, 6-chloro-1-(2,6-diethylphenyl)-7-((3S)-3-methyl-1-piperindinyl)-4-((2S)-2-methyl-4-(2-propenoyl)-1-piperazinyl)pyrido[2,3-d]pyrimidin-2(1H)-one]
48.5 | nda μM	C=CC(=O)N1CCN(c2nc(=O)n(-c3ccccc3C(C)C)c3nc(N(C)CCO)c(Cl)cc23)[C@@H](C)C1 [Example 69-7, 6-chloro-7-((2-hydroxyethyl)(methyl)amino)-4-((2S)-2-methyl-4-(2-propenoyl)-1-piperazinyl)-1-(2-(2-propanyl)phenyl)pyrido[2,3-d]pyrimidin-2(1H)-one]
6.6 | nda μM	C=CC(=O)N1CCN(c2nc(CN(C)C)c(-c3ccccc3C(C)C)c3nc(-c4ccccc4F)c(Cl)cc23)CC1 [86-2, 1-(4-(3-chloro-7-((dimethylamino)methyl)-2-(2-fluorophenyl)-8-(2-(2-propanyl)phenyl)-1,6-naphthyridin-5-yl)-1-piperazinyl)-2-propen-1-one]
1.12 | nda μM	C=CC(=O)N1CCN(c2nc(=O)n(-c3c(C)cccc3C(C)C)c3nc(-c4nc(N)ccc4Cl)c(F)cc23)[C@@H](C)C1 [Example 71-1, 7-(6-Amino-3-chloro-2-pyridinyl)-6-fluoro-1-(2-methyl-6-(2-propanyl)phenyl)-4-((2S)-2-methyl-4-(2-propenoyl)-1-piperazinyl)pyrido[2,3-d]pyrimidin-2(1H)-one]
14.1 | nda μM	C=CC(=O)N1CCN(c2nc(=O)c(-c3ccccc3C(C)C)c3cc(-c4ccccc4F)c(C)nn23)CC1 [Example 81-2, 3-(2-fluorophenyl)-2-methyl-5-(2-(2-propanyl)phenyl)-8-(4-(2-propenoyl)-1-piperazinyl)-6H-pyrimido[1,6-b]pyridazin-6-one]
23.9 | nda μM	C=CC(=O)N1CCN(c2nc(=O)n(-c3c(C(N)=O)cccc3C(C)C)c3nc(-c4ccccc4F)c(Cl)cc23)[C@@H](C)C1 (single isomer, unassigned) [Example 142-1]
5.54 | nda μM	C=CC(=O)N1C[C@@H](C)N(c2nc(=O)n(-c3c(C)ccnc3C(C)C)c3nc(-c4c(N)cccc4F)c(Cl)cc23)[C@H](C)C1 (atropisomer, axis not shown; (M)) [Example 73-18, (M)-7-(2-amino-6-fluorophenyl)-6-chloro-4-((2R,6R)-2,6-dimethyl-4-(2-propenoyl)-1-piperazinyl)-1-(4-methyl-2-(2-propanyl)-3-pyridinyl)pyrido[2,3-d]pyrimidin-2(1H)-one]
25.3 | nda μM	C=CC(=O)N1CCN(c2nc(=O)n(-c3c(CC)cccc3CC)c3nc(N4CCC(C)(C)CC4)c(Cl)cc23)[C@@H](C)C1 [Example 66-29, 6-chloro-1-(2,6-diethylphenyl)-7-(4,4-dimethyl-1-piperindinyl)-4-((2S)-2-methyl-4-(2-propenoyl)-1-piperazinyl)pyrido[2,3-d]pyrimidin-2(1H)-one]

Same assay, conditions: 2 h compound pre-incubation

Coupled exchange IC50 (2 h)	SMILES
nda | 18 μM	C=CC(=O)N1CCN(c2nc(=O)n(-c3ccccc3C(F)(F)F)c3cc(Br)c(Cl)cc23)CC1 [Example 128, 7-Bromo-6-chloro-4-(4-(2-propenoyl)-1-piperazinyl)-1-(2-(trifluoromethyl)phenyl)-2(1H)-quinazolinone]

Same assay, conditions: read-out: Coupled exchange IC50 (5 min); 5 min compound pre-incubation

IC50 [µM]	SMILES
6.34	C=CC(=O)N1CCN(c2nc(CO)c(-c3ccccc3C(C)C)c3nc(-c4ccccc4F)c(Cl)cc23)CC1 [Example 85-1]
2.45	C=CC(=O)N1CCN(c2nc(=O)n(-c3c(C)cccc3C(C)C)c3nc(Cl)c(Cl)cc23)[C@@H](C)C1 (atropisomer, axis not shown; (M)) [Example 112, (M)-6,7-Dichloro-1-(2-methyl-6-(2-propanyl)phenyl)-4-((2S)-2-methyl-4-(2-propenoyl)-1-piperazinyl)pyrido[2,3-d]pyrimidin-2(1H)-one]
39	C=CC(=O)N1CCN(c2nc(=O)n(-c3ccccc3C(C)C)c3nc(-c4ccc[nH]c4=O)c(Cl)cc23)[C@@H](C)C1 [Example 97, 6-Chloro-4-((2S)-2-methyl-4-(2-propenoyl)-1-piperazinyl)-7-(2-oxo-1,2-dihydro-3-pyridinyl)-1-(2-(2-propanyl)phenyl)pyrido[2,3-d]pyrimidin-(1H)-one]
